Test results published in US12583856B2, “Inhibitors of protein kinase A” (Blueprint Medicines Corporation, priority 2021, dated 2026).
pIC50: −log10 of the molar value.

What was measured:
[1] = test system: PKA (phosphorylation of VASP on Serine 157); experiment: Cellular potency assay: P-VASP(157) HTRF in Forskolin-stimulated Huh7 cells; format: cell-based; settings: Homo sapiens, Huh-7, 4 hours compound, 5 μM Forskolin 30 minutes, read-out: Phos VASP(S157) IC50
Excerpt: PKA directly phosphorylate VASP on Serine 157. Phosphorylation of VASP on Serine 157. P-VASP(157) was therefore used as a readout of PKA cellular activity. P-VASP(157) was detected with a HTRF assay, which is based on a TR-FRET sandwich immunoassay-based format comprising two specific anti-VASP antibodies following the manufactors protocol (Cisbio, Catalog No. 63ADK066PEH). PKA was activated in the assay by the addition of Forskolin (Sigma-Aldrich, Catalog No. F3917).
Dose response in Forskolin-stimulated human Huh7 cells was measured as follows. Briefly, Huh7 cells were plated at a density of 2×10^4 cells per well in a 384-well opti-well cell culture plate in 15 μl of serum- and phenol-free Dulbecco's Modified Eagle Medium (DMEM, Gibco Catalog No. 21063-029), and incubated for over night at 37° C., 5% CO2. The next day, 3 μl of a dosed concentration series of test compound (0.24%) DMSO final concentration) was added to the wells, and the cells were incubated for an additional 4 hours at 37° C., 5% CO2. 2 μl of Forskolin was added at a final concentration of 5 μM and the plates were incubated for 30 minutes at 37° C., 5% CO2. 5 μl of lysis buffer containing 1% HALT protease cocktail inhibitors (ThermoFisher, Catalog No. 78430), was added to the cells and the mixture was incubated under gentle shaking for 30 min at room temperature. 10 μl of this lysate was transferred to a 384-well proxi plate and 2.5 μL of the premixed antibody solution was added. An antibody solution was prepared by combining phopho-VASP cryptate antibody and phospho-VASP d2 antibody, at twenty-fold dilution into a buffer solution following the manufactors' protocol. The lysate and antibody mixture was incubated for either 3 h at room temperature or overnight at 4° C. The fluorescence emission at two different wavelengths (665 nm and 620 nm) was read on an EnVision instrument.

PRKACA = molecular target: T1, PRKACA (Homo sapiens, UniProt P17612); experiment: PRKACA assay at Km (EZ Reader 2 electrophoretic mobility shift); format: biochemical; settings: 5 μM ATP (Km), 1 μM Kemptide, 90 minutes at 25 C; read-out: Enz PRKACA IC50
T1 construct: purchased Millipore 539482
Description: A Perkin Elmer electrophoretic mobility shift platform (the EZ Reader 2) was used to assess the activity of test compounds against a kinase of interest. Fluorescently labeled substrate peptide was incubated in the presence of kinase, ATP, and the test compound, so that a portion of the peptide was phosphorylated by the enzyme. At the end of the reaction, the mix of phosphorylated (product) and non-phosphorylated (substrate) peptide containing solutions was passed through the microfluidic system of the Perkin Elmer EZ Reader 2 under an applied potential difference. The presence of the phosphate group on the product peptide provided a difference in mass and charge between those of the substrate peptide, resulting in a separation of the substrate and product pools in the sample. As the stopped solutions passed under the instrument's LED light the phosphorylated and un-phosphorylated fluorophore bound peptides were detected and resolved as separate peaks. The ratio between these peaks therefore reflected the test compound's impact on the kinase at that concentration in that well under those conditions.
PRKACA assay at Km: In each well of a 384-well plate, 0.007 ng/ul (0.18 nM) of PRKACA enzyme (Millipore: 539482) was incubated in a total of 12.5 μl of buffer (100 mM HEPES pH 7.5, 0.015% Brij 35, 10 mM MgCl2, 1 mM DTT) with 1 μM Kemptide peptide substrate (5-FAM-LRRASLG) (Anaspec 29933) and 5 μM ATP at 25 C for 90 minutes in the presence or absence of a dosed concentration series of test compounds (1% DMSO final concentration). The reaction was stopped by the addition of 80 μl of Stop buffer (100 mM HEPES pH 7.5, 0.015% Brij 35, 35 mM EDTA and 0.2% of Coating Reagent 3 (Perkin Elmer)). The plate was then read on the EZ Reader 2 (protocol settings: −2.0 psi, upstream voltage −700, downstream voltage −2700, post sample sip 60 seconds). Data was normalized to 0% and 100% inhibition controls and the IC50 calculated using a 4-parameter fit using GraphPad Prism.

| Compound | pIC50 [1] | pIC50 (PRKACA) |
| --- | --- | --- |
| O=C(N[C@@H]1c2c(ccc(F)c2F)C[C@H]1N1CCCC1)c1ccc(-c2ccnc3[nH]cc(F)c23)nc1 [Compound 179] | > 7.30 | ≥ 9.00 |
| C[C@@H]1c2cccc(F)c2[C@@H](NC(=O)c2ccc(-c3ccnc4[nH]ccc34)nc2)[C@H]1O (single isomer, unassigned) [Compound 122] | > 7.30 | ≥ 9.00 |
| O=C(N[C@@H]1c2ccccc2C[C@H]1N1CC[C@H](F)C1)c1ccc(-c2ccnc3[nH]ccc23)nc1 [Compound 158] | 7.00 to 11.00 | ≥ 9.00 |
| O=C(N[C@@H]1c2c(Cl)cccc2C[C@H]1N1CC[C@H](F)C1)c1ccc(-c2ccnc3[nH]ccc23)nc1 [Compound 178] | > 7.30 | ≥ 9.00 |
| O=C(N[C@H]1c2c(ccc(F)c2F)OC[C@H]1O)c1ccc(-c2ccnc3[nH]ccc23)nc1 (stereo in doubt) [Compound 140, N-[(3S,4S)-5,6-Difluoro-3-hydroxy-3,4-dihydro-2H-1-benzopyran-4-yl]-6-{1H-pyrrolo[2,3-b]pyridin-4-yl}pyridine-3-carboxamide] | 7.00 to 11.00 | ≥ 9.00 |
| O=C(N[C@@H]1c2ccc(C(F)F)cc2C[C@H]1N1CC[C@H](F)C1)c1ccc(-c2ccnc3[nH]ccc23)nc1 [Compound 183] | 7.00 to 11.00 | 8.30 to 9.00 |
| O=C(N[C@H]1CCc2ccc(F)cc21)c1ccc(-c2ccnc3[nH]ccc23)nc1 [Compound 105, N-[(1S)-6-Fluoro-2,3-dihydro-1H-inden-1-yl]-6-{1H-pyrrolo[2,3-b]pyridin-4-yl}pyridine-3-carboxamide] | 7.00 to 11.00 | 8.30 to 9.00 |
| Cc1cccc2c1[C@@H](NC(=O)c1ccc(-c3ccnc4[nH]ccc34)nc1)[C@H](N1CCCC1)C2 [Compound 153] | 7.00 to 11.00 | ≥ 9.00 |
| O=C(N[C@@H]1c2ccccc2OC[C@H]1F)c1ccc(-c2ccnc3[nH]ccc23)cc1 [Compound 116, N-[(3S,4R)-3-Fluoro-3,4-dihydro-2H-1-benzopyran-4-yl]-4-{1H-pyrrolo[2,3-b]pyridin-4-yl}benzamide] | 7.00 to 11.00 | ≥ 9.00 |
| Cc1c[nH]c2nccc(-c3ccc(C(=O)N[C@@H]4c5c(ccc(F)c5Cl)C[C@H]4N4CCCC4)cn3)c12 [Compound 181] | > 7.30 | ≥ 9.00 |
| C[C@H]1Oc2ccc(F)c(F)c2[C@@H](NC(=O)c2ccc(-c3ccnc4[nH]ccc34)nc2)[C@@H]1O [Compound 149] | > 7.30 | ≥ 9.00 |
| O=C(N[C@@H]1c2c(Cl)cccc2C[C@H]1N1C[C@@H](O)[C@H](F)C1)c1ccc(-c2ccnc3[nH]ccc23)nc1 [Compound 184] |  | 8.30 to 9.00 |
| O=C(N[C@@H]1c2c(Cl)cccc2C[C@H]1N1CCCC1)c1ccc(-c2ccnc3[nH]ccc23)nc1 [Compound 168] | > 7.30 | ≥ 9.00 |
| Cc1c[nH]c2nccc(-c3ccc(C(=O)N[C@@H]4c5c(Cl)cccc5C[C@H]4N4CCCC4)cn3)c12 [Compound 174] | > 7.30 | ≥ 9.00 |
| O=C(N[C@H]1CCOc2ccc(Cl)c(F)c21)c1ccc(-c2ccnc3[nH]ccc23)nc1 [Compound 143] | > 7.30 | ≥ 9.00 |
| Cc1c[nH]c2nccc(-c3ccc(C(=O)N[C@@H]4c5c(F)cccc5C[C@H]4N4CC(C)C4)cn3)c12 [Compound 166] | 7.00 to 11.00 | ≥ 9.00 |
| O=C(N[C@@H]1c2c(ccc(F)c2Cl)C[C@H]1N1CCCC1)c1ccc(-c2ccnc3[nH]ccc23)nc1 [Compound 177] | > 7.30 | ≥ 9.00 |
| C[C@H]1Oc2cccc(F)c2[C@@H](NC(=O)c2ccc(-c3ccnc4[nH]ccc34)nc2)[C@@H]1O [Compound 137] | 7.00 to 11.00 | ≥ 9.00 |
| CC1CN([C@@H]2Cc3ccccc3[C@H]2NC(=O)c2ccc(-c3ccnc4[nH]ccc34)nc2)C1 [Compound 145] | 7.00 to 11.00 | ≥ 9.00 |
| O=C(N[C@H]1CCc2cccc(F)c21)c1ccc(-c2ccnc3[nH]ccc23)nc1 [Compound 106] | 7.00 to 11.00 | ≥ 9.00 |
